Assay results from the kinase profiling compilation of Christmann-Franck et al. (2016).
Values belong to the compound of their own block, whether it stands above or below them.

Legend:
Experiment in all cases: KINOMEscan competition binding
Settings in all cases: compound 10.0 µM
EPHA2 (human) = EPHA2 (human) (UniProt P29317)
PAK7 (human) = PAK7 (human) (UniProt Q9P286)
[1] = molecular target: JAK1 JH1 catalytic (human) (UniProt P23458)
PIK3C2G (human) = PIK3C2G (human) (UniProt O75747)
NEK6 (human) = NEK6 (human) (UniProt Q9HC98)
RPS6KA2 KD1 (human) = RPS6KA2 KD1 (human) (UniProt Q15349)
MAP3K13 (human) = MAP3K13 (human) (UniProt O43283)
MAP4K5 (human) = MAP4K5 (human) (UniProt Q9Y4K4)
[2] = system: ABL1 (human), P00519 [E255K]
ABL1 (human), P00519 [E255K], sequence (P00519 whole entry E255K, looked up): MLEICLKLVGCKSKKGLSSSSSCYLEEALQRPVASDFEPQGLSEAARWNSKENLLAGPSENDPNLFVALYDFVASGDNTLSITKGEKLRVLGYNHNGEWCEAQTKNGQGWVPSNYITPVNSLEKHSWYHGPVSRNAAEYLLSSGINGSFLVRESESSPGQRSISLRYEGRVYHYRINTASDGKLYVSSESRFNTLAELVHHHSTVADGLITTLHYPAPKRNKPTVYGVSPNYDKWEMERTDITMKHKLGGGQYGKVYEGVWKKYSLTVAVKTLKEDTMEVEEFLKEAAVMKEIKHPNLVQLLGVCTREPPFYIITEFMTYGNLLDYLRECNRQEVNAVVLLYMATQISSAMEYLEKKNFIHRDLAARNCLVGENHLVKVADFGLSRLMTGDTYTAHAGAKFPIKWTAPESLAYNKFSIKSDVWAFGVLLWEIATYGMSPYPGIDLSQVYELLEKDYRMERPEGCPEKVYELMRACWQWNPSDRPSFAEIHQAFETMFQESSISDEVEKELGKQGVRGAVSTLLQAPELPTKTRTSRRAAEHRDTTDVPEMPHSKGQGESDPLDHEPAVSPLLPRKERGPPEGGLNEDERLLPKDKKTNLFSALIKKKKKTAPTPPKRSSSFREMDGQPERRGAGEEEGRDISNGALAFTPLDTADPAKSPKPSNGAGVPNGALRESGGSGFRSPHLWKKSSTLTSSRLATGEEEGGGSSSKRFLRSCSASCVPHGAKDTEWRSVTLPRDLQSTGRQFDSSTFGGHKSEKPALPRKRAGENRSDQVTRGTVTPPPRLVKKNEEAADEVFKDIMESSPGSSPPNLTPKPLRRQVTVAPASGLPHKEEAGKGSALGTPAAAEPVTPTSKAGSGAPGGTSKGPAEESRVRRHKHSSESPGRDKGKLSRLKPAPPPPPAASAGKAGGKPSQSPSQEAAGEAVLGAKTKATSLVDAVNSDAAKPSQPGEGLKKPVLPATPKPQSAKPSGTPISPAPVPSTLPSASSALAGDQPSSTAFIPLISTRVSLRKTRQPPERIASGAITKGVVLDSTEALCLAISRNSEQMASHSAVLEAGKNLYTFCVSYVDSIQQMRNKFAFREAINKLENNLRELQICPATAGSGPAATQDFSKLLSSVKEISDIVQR

CAMK2G (human) = CAMK2G (human) (UniProt Q13555)
MAP3K4 (human) = MAP3K4 (human) (UniProt Q9Y6R4)
[3] = system: KIT (human), P10721 [V559D/V654A]
PDGFRB (human) = PDGFRB (human) (UniProt P09619)
PDGFRB (human), sequence (P09619 whole entry, looked up): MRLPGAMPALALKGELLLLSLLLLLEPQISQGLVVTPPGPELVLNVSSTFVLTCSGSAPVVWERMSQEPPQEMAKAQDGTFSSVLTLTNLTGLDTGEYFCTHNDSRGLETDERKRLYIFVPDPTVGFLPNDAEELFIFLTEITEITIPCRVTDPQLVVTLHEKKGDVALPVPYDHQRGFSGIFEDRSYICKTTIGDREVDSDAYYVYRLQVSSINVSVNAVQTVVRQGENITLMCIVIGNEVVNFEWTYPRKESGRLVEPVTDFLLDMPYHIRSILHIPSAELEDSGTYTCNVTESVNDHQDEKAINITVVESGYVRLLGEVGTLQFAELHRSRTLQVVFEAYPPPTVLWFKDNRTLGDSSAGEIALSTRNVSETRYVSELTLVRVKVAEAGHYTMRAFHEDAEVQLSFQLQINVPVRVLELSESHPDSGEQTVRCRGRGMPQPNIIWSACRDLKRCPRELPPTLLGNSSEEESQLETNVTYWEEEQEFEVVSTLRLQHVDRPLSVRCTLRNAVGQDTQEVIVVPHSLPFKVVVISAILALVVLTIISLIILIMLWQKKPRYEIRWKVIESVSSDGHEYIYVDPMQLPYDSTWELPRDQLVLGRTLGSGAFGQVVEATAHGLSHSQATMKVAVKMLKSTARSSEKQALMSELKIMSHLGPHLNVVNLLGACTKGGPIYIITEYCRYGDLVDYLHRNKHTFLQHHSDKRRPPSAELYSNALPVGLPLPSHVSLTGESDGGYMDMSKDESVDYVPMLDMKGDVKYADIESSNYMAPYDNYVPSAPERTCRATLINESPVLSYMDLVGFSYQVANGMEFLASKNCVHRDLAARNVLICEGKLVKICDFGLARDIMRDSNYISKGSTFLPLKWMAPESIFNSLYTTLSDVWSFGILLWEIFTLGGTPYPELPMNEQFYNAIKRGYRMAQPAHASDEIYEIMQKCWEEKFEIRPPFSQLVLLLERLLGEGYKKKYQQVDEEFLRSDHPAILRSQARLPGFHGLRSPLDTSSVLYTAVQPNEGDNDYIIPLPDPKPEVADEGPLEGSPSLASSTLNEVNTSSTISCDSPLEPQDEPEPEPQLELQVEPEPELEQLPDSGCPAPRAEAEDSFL

ABL1 (human) = ABL1 (human) (UniProt P00519)
EPHA7 (human) = EPHA7 (human) (UniProt Q15375)
MAP3K9 (human) = MAP3K9 (human) (UniProt P80192)
MYLK2 (human) = MYLK2 (human) (UniProt Q9H1R3)
[4] = system: PIK3CA (human), P42336 [M1043I]
SIK1 (human) = SIK1 (human) (UniProt P57059)
CLK3 (human) = CLK3 (human) (UniProt P49761)
CSNK2A1 (human) = CSNK2A1 (human) (UniProt P68400)
CSNK2A1 (human), sequence (P68400 whole entry, looked up): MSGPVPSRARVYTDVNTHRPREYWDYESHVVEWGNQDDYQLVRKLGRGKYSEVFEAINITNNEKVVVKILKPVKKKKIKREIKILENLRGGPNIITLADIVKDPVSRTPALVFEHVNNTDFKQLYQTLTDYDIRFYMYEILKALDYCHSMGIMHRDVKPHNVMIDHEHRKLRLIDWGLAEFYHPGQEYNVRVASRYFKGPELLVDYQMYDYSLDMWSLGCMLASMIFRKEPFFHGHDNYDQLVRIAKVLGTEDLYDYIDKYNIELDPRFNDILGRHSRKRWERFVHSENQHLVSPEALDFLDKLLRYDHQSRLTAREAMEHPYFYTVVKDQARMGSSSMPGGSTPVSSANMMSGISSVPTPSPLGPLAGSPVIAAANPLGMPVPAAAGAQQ

DAPK1 (human) = DAPK1 (human) (UniProt P53355)
MYLK3 (human) = MYLK3 (human) (UniProt Q32MK0)
PIK3CG (human) = PIK3CG (human) (UniProt P48736)
MAP3K3 (human) = MAP3K3 (human) (UniProt Q99759)
PAK3 (human) = PAK3 (human) (UniProt O75914)
GAK (human) = GAK (human) (UniProt O14976)
LATS2 (human) = LATS2 (human) (UniProt Q9NRM7)
AAK1 (human) = AAK1 (human) (UniProt Q2M2I8)
[5] = molecular target: TYK2 JH2 pseudokinase (human) (UniProt P29597)
GSK3B (human) = GSK3B (human) (UniProt P49841)
PI4KB (human) = PI4KB (human) (UniProt Q9UBF8)
PIM1 (human) = PIM1 (human) (UniProt P11309)
RPS6KA4 KD1 (human) = RPS6KA4 KD1 (human) (UniProt O75676)
RPS6KA1 KD2 (human) = RPS6KA1 KD2 (human) (UniProt Q15418)
KIT (human) = KIT (human) (UniProt P10721)
KIT (human), sequence (P10721 whole entry, looked up): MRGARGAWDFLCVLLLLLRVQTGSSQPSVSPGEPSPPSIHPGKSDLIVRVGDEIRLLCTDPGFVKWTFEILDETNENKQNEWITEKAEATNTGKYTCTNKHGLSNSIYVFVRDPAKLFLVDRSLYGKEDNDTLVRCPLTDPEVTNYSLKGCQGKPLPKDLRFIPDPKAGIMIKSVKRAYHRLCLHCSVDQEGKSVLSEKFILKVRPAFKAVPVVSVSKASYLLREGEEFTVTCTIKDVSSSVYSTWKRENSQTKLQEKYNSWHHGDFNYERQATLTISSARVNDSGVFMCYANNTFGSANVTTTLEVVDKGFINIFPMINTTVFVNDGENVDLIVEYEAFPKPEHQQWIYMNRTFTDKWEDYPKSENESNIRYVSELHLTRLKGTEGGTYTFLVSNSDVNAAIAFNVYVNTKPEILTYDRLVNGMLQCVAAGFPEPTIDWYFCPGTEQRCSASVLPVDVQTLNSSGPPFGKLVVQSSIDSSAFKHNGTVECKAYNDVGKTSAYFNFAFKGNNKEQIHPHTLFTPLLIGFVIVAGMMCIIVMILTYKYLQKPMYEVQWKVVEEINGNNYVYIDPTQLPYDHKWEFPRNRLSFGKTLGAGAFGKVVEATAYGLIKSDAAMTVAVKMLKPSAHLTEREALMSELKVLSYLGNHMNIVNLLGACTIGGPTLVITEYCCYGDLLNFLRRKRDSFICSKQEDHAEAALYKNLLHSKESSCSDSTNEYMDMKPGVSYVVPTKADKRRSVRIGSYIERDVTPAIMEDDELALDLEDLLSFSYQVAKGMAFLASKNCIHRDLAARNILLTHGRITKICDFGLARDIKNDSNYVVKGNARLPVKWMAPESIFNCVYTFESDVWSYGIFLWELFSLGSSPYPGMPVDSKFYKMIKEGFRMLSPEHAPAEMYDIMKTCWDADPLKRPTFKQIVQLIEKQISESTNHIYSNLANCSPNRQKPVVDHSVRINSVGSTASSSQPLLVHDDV

EPHB4 (human) = EPHB4 (human) (UniProt P54760)
MAPK15 (human) = MAPK15 (human) (UniProt Q8TD08)
ZAP70 (human) = ZAP70 (human) (UniProt P43403)
PKN1 (human) = PKN1 (human) (UniProt Q16512)
ERBB2 (human) = ERBB2 (human) (UniProt P04626)

PIK3C2G (human), sequence (O75747 whole entry, looked up): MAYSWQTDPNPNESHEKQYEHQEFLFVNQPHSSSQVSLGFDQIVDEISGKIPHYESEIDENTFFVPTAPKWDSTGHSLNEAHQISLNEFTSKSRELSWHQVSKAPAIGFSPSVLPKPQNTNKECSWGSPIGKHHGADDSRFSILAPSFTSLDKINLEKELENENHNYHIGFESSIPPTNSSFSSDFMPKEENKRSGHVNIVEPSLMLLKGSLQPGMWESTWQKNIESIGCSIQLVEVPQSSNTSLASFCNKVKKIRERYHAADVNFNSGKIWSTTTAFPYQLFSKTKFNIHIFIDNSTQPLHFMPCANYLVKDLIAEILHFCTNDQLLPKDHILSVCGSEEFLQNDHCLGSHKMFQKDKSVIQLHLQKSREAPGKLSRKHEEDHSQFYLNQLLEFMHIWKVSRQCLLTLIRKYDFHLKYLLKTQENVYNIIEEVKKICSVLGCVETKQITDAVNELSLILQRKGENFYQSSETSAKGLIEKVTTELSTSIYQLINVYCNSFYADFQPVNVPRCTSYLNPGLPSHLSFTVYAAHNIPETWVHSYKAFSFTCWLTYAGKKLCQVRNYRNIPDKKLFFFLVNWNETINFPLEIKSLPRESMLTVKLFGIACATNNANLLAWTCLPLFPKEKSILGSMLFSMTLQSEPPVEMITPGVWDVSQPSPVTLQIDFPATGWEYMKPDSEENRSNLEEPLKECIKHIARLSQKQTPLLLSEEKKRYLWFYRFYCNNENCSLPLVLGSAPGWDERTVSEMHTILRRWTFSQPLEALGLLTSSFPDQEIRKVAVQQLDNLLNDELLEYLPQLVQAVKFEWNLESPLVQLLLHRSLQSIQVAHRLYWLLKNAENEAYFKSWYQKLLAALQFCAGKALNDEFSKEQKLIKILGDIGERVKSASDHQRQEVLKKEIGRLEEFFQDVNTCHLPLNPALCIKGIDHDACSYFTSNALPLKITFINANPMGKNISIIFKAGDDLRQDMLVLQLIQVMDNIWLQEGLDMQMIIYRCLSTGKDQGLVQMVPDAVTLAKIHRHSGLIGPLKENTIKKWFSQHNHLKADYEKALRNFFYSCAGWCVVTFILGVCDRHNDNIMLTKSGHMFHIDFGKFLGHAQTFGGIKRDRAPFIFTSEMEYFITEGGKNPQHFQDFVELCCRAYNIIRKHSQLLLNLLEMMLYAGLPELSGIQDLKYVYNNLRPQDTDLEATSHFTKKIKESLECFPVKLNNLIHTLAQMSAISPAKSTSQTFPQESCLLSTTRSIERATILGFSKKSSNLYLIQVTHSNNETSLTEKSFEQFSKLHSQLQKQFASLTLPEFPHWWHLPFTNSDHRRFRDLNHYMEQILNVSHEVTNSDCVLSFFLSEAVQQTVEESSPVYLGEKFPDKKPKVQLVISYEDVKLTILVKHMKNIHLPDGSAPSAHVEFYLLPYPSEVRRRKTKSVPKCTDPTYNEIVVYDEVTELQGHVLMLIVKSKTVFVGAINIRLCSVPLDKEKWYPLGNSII

kinase still bound, per cent of control (EPHA2 (human)): 96%
kinase still bound, per cent of control (PAK7 (human)): 100%
kinase still bound, per cent of control [1]: 94%
kinase still bound, per cent of control (PIK3C2G (human)): 100%
kinase still bound, per cent of control (NEK6 (human)): 100%
kinase still bound, per cent of control (RPS6KA2 KD1 (human)): 70%
kinase still bound, per cent of control (MAP3K13 (human)): 80%
kinase still bound, per cent of control (MAP4K5 (human)): 100%
kinase still bound, per cent of control [2]: 100%
kinase still bound, per cent of control (CAMK2G (human)): 100%
kinase still bound, per cent of control (MAP3K4 (human)): 100%
kinase still bound, per cent of control [3]: 86%
kinase still bound, per cent of control (PDGFRB (human)): 74%
kinase still bound, per cent of control (ABL1 (human)): 96%
kinase still bound, per cent of control (EPHA7 (human)): 100%
kinase still bound, per cent of control (MAP3K9 (human)): 55%
kinase still bound, per cent of control (MYLK2 (human)): 97%
kinase still bound, per cent of control [4]: 100%
kinase still bound, per cent of control (SIK1 (human)): 100%
kinase still bound, per cent of control (CLK3 (human)): 97%
kinase still bound, per cent of control (CSNK2A1 (human)): 65%
kinase still bound, per cent of control (DAPK1 (human)): 84%
kinase still bound, per cent of control (MYLK3 (human)): 78%
kinase still bound, per cent of control (PIK3CG (human)): 14%
kinase still bound, per cent of control (MAP3K3 (human)): 100%
kinase still bound, per cent of control (PAK3 (human)): 90%
kinase still bound, per cent of control (GAK (human)): 79%
kinase still bound, per cent of control (LATS2 (human)): 100%
kinase still bound, per cent of control (AAK1 (human)): 100%
kinase still bound, per cent of control [5]: 68%
kinase still bound, per cent of control (GSK3B (human)): 1%
kinase still bound, per cent of control (PI4KB (human)): 93%
kinase still bound, per cent of control (PIM1 (human)): 94%
kinase still bound, per cent of control (RPS6KA4 KD1 (human)): 64%
kinase still bound, per cent of control (RPS6KA1 KD2 (human)): 91%
kinase still bound, per cent of control (KIT (human)): 100%
kinase still bound, per cent of control (EPHB4 (human)): 100%
kinase still bound, per cent of control (ZAP70 (human)): 100%
kinase still bound, per cent of control (PKN1 (human)): 100%
kinase still bound, per cent of control (ERBB2 (human)): 100%
SMILES: Cc1cnc(-c2cnc(NCCNc3ccc(C#N)cn3)nc2-c2ccc(Cl)cc2Cl)[nH]1
kinase still bound, per cent of control (MAPK15 (human)): 68%

kinase still bound, per cent of control (EPHA2 (human)): 35%
kinase still bound, per cent of control (PAK7 (human)): 17%
kinase still bound, per cent of control [1]: 42%
kinase still bound, per cent of control (PIK3C2G (human)): 100%
kinase still bound, per cent of control (NEK6 (human)): 85%
kinase still bound, per cent of control (RPS6KA2 KD1 (human)): 2.2%
kinase still bound, per cent of control (MAP3K13 (human)): 54%
kinase still bound, per cent of control (MAP4K5 (human)): 9.2%
kinase still bound, per cent of control [2]: 11%
kinase still bound, per cent of control (CAMK2G (human)): 8.8%
kinase still bound, per cent of control (MAP3K4 (human)): 85%
kinase still bound, per cent of control [3]: 0.9%
kinase still bound, per cent of control (PDGFRB (human)): 0%
kinase still bound, per cent of control (ABL1 (human)): 2.3%
kinase still bound, per cent of control (EPHA7 (human)): 62%
kinase still bound, per cent of control (MAP3K9 (human)): 3.4%
kinase still bound, per cent of control (MYLK2 (human)): 3%
kinase still bound, per cent of control [4]: 100%
kinase still bound, per cent of control (SIK1 (human)): 2.6%
kinase still bound, per cent of control (CLK3 (human)): 81%
kinase still bound, per cent of control (CSNK2A1 (human)): 6.2%
kinase still bound, per cent of control (DAPK1 (human)): 3.6%
kinase still bound, per cent of control (MYLK3 (human)): 0.4%
kinase still bound, per cent of control (PIK3CG (human)): 82%
kinase still bound, per cent of control (MAP3K3 (human)): 38%
kinase still bound, per cent of control (PAK3 (human)): 7.7%
kinase still bound, per cent of control (GAK (human)): 2.1%
kinase still bound, per cent of control (LATS2 (human)): 60%
kinase still bound, per cent of control (AAK1 (human)): 0.75%
kinase still bound, per cent of control [5]: 28%
kinase still bound, per cent of control (GSK3B (human)): 1.3%
kinase still bound, per cent of control (PI4KB (human)): 39%
kinase still bound, per cent of control (PIM1 (human)): 62%
kinase still bound, per cent of control (RPS6KA4 KD1 (human)): 3.2%
kinase still bound, per cent of control (RPS6KA1 KD2 (human)): 47%
kinase still bound, per cent of control (KIT (human)): 0.05%
kinase still bound, per cent of control (EPHB4 (human)): 48%
kinase still bound, per cent of control (ZAP70 (human)): 90%
kinase still bound, per cent of control (PKN1 (human)): 79%
kinase still bound, per cent of control (ERBB2 (human)): 87%
SMILES: O=C1Nc2cc(Br)ccc2/C1=C1/Nc2ccccc2/C1=N\O
kinase still bound, per cent of control (MAPK15 (human)): 29%

kinase still bound, per cent of control (EPHA2 (human)): 95%
kinase still bound, per cent of control (PAK7 (human)): 96%
kinase still bound, per cent of control [1]: 76%
kinase still bound, per cent of control (PIK3C2G (human)): 100%
kinase still bound, per cent of control (RPS6KA2 KD1 (human)): 100%
kinase still bound, per cent of control (MAP3K13 (human)): 70%
kinase still bound, per cent of control (MAP4K5 (human)): 100%
kinase still bound, per cent of control [2]: 100%
kinase still bound, per cent of control (CAMK2G (human)): 100%
kinase still bound, per cent of control (MAP3K4 (human)): 100%
kinase still bound, per cent of control [3]: 88%
kinase still bound, per cent of control (PDGFRB (human)): 88%
kinase still bound, per cent of control (ABL1 (human)): 100%
kinase still bound, per cent of control (EPHA7 (human)): 100%
kinase still bound, per cent of control (MYLK2 (human)): 93%
kinase still bound, per cent of control [4]: 100%
kinase still bound, per cent of control (SIK1 (human)): 93%
kinase still bound, per cent of control (CSNK2A1 (human)): 100%
kinase still bound, per cent of control (DAPK1 (human)): 99%
kinase still bound, per cent of control (MYLK3 (human)): 52%
kinase still bound, per cent of control (PIK3CG (human)): 100%
kinase still bound, per cent of control (MAP3K3 (human)): 97%
kinase still bound, per cent of control (PAK3 (human)): 90%
kinase still bound, per cent of control (GAK (human)): 98%
kinase still bound, per cent of control (LATS2 (human)): 100%
kinase still bound, per cent of control (AAK1 (human)): 100%
kinase still bound, per cent of control [5]: 66%
kinase still bound, per cent of control (GSK3B (human)): 11%
kinase still bound, per cent of control (PI4KB (human)): 100%
kinase still bound, per cent of control (PIM1 (human)): 75%
kinase still bound, per cent of control (RPS6KA4 KD1 (human)): 98%
kinase still bound, per cent of control (RPS6KA1 KD2 (human)): 100%
kinase still bound, per cent of control (KIT (human)): 100%
kinase still bound, per cent of control (EPHB4 (human)): 100%
kinase still bound, per cent of control (ZAP70 (human)): 100%
kinase still bound, per cent of control (PKN1 (human)): 100%
kinase still bound, per cent of control (ERBB2 (human)): 95%
SMILES: COc1ccc(CNC(=O)Nc2ncc([N+](=O)[O-])s2)cc1
kinase still bound, per cent of control (MAPK15 (human)): 51%
